The record followed here is ChEMBL document CHEMBL1154205, “Click chemistry based rapid one-pot synthesis and evaluation for protease inhibition of new tetracyclic triazole fused benzodiazepine derivatives” (Bioorg Med Chem Lett, 2009).

Activity calls are given as the source filed them. The rule behind the calls is not given here.

A short description of assay [1]: Inhibition of aspartic protease.
A short description of assay [2]: Inhibition of serine protease.
Assay [3] is described as follows: Inhibition of cysteine protease.

For the molecule `O=C1c2c(cccc2[N+](=O)[O-])-n2nncc2[C@@H]2CCCN12`, the inhibition result in assay [1] was “inactive”. Moreover, the concentration for half-maximal inhibition (IC50) is 108 µM in assay [2] and “Not Active” in assay [3].

`O=C1c2cc(Br)ccc2-n2nncc2[C@@H]2C[C@@H](OCc3ccccc3)CN12`: in assay [1], the inhibition result is “inactive”. Further, the IC50 was 206 µM in assay [2] and “Not Active” in assay [3].

Consider `O=C1c2cc(I)cc(I)c2-n2nncc2[C@@H]2C[C@@H](OCc3ccccc3)CN12`, for which the inhibition entry in assay [1] is “inactive”. Further, the figures for the IC50 in assay [2] and in assay [3] were 196 µM and “Not Active”, respectively.

As to `O=C1c2cc(Br)ccc2-n2nncc2[C@@H]2CCCN12`, in assay [1], the inhibition result was “inactive”. For the same molecule, the IC50 in assay [2] was 290 µM; in assay [3], “Not Active”.

With `Cc1cccc2c1C(=O)N1C[C@H](OCc3ccccc3)C[C@H]1c1cnnn1-2`, in assay [1], the inhibition result was “inactive”. The IC50 in assay [2] was 536 µM; in assay [3], “Not Active”.

With `Cc1cc(Br)cc2c1C(=O)N1CCC[C@H]1c1cnnn1-2`, in assay [1], the inhibition result was “inactive”. Moreover, the IC50 in assay [2] was 674 µM; in assay [3] it was “Not Active”.
